Reference: patent US20020091144A1, “Treatment of apoptotic cell death” (Johns Hopkins University, priority 2000, published 2002)

Key:
[1] = tested on: Neonatal rat cardiac myocytes; assay: Mitochondrial membrane potential, JC-1 flow cytometry, cardiac myocytes; type: cell-based
Experimental: The effects of mitoKATP channel activation by flow cytometry (FIGS. 2F-J) were further quantified. Incubation with 200 μM H2O2 for 2 h decreased the red fluorescence and shifted the distribution curve leftward. […] To confirm the central role of mitoKATP channels, we examined another mitoKATP channel opener, pinacidil.
(§1) Cytoprotective effects of diazoxide in neurons also was evaluated. […] Staining was conducted as follows: loss of mitochondrial membrane potential (ΨΔ) was assessed using either a laser scanning confocal microscope or flow cytometry analysis of cells stained with 5,5′,6,6′-tetrachloro-1,1′,3,3′-tetraethylbenzimidazolecarbocyanide iodine (JC-1, Molecular Probes). Cells were incubated with 2 μg/mL JC-1 for 10 min in 37° C. After washing the dye, cells on dishes were scanned with a confocal microscope at 10x magnification. The dye was excited by the 488 nm line of an argon laser, and the 543 nm line of a helium/neon laser. The red emission of the dye is due to a potential-dependent aggregation in the mitochondria, reflecting ΨΔ. Green fluorescence reflects the monomeric form of JC-1, occuring in the cytosol after mitochondrial membrane depolarization. The fluorescence intensity of the field was measured using integrated image analysis software (Simple32; Compix, Inc.), which was programmed to automatically detect all areas of red or green fluorescence above background. The data are plotted as mean values of arbitrary units of fluorescence intensity. For flow cytometry analysis, cells were harvested by trypsinization after loading of the dye, and analyzed by FACScan (10,000 cells/sample). The excitation wavelength was 488 nm, and the emission fluorescence for JC-1 was monitored at 530 (FL-1) and 582 nm (FL-2). The flow cytometry data are analyzed using Cell Quest (Becton Dickinson, Immunocytometry Systems).

caspase-3 = assay: Activated caspase-3 immunofluorescent staining; type: cell-based, rat
Experimental: (§2) Neonatal rat cardiac myocytes in primary culture were randomly assigned to one of four experimental groups: 1) control group, 2) incubation with 200 μM H2O2, 3) 100 μM diazoxide, applied together with 200 μM H2O2, 4) 100 μM diazoxide and 500 μM 5-HD, applied together with 200 μM H2O2. […] Staining was conducted as follows. TUNEL staining was performed according to the manufacturer's protocol (Roche Molecular Biochemicals). Fluorescein labels incorporated in nucleotide polymers were detected by laser scanning confocal microscopy at excitation wavelength of 488 rim (argon laser). […] Necrotic cells had been excluded from these specimens since they became non-adherent and were removed when the medium was decanted and the cell layers were washed in PBS. […] This effect was blocked by the mitoKATP channel antagonist 5-HD (FIG. 1D). […] That immunofluorescence was conducted as follows: cells were plated on glass coverslips, treated with drugs as indicated, fixed in ice-cold 1:1 mixture of methanol/acetone, blocked with 10% normal goat serum and 0.075% saponin in PBS, and incubated with primary antibody dissolved in blocking solution at a dilution of 1:100. […] These coverslips were mounted with antifading fluorescence mounting medium and were examined by a laser scanning confocal microscope (Zeiss, LSM 410), using 40x water-immersion lens and 2x optical zoom. […]

mitoKATP channel = conditions: intact heart cells; read-out: value for mitoKATP channel activation; cited from earlier work
[2] = tested on: Neonatal rat cardiac myocytes; assay: Mitochondrial membrane potential, JC-1 confocal image analysis, cardiac myocytes; type: cell-based
Experimental: Redistribution of cytochrome c has been linked to the loss of mitochondrial membrane potential (ΨΔ) and the opening of the mitochondrial permeability transition pore (23). We assessed ΨΔ in H2O2-stimulated myocytes using a fluorescent probe, JC-1 (24). […] Cells exposed to 200 μM H2O2 for 2 h lose punctate red staining (FIG. 2B), in favor of a diffuse green cytosolic signal indicative of the loss of ΨΔ. […] The protective effect of diazoxide is blocked by 500 μM 5-HD (FIG. 2D). These observations were rendered quantitative by automated image analysis (24). FIG. 2E summarizes the red fluorescence, an indicator of ΨΔ.
as §1

[3] = tested on: Neonatal rat cardiac myocytes; assay: TUNEL staining of H2O2-induced apoptosis; type: cell-based
Experimental: Neonatal rat cardiac myocytes in primary culture were randomly assigned to one of four experimental groups: 1) control group, 2) incubation with 200 μM H2O2, 3) 100 μM diazoxide, applied together with 200 μM H2O2, 4) 100 μM diazoxide and 500 μM 5-HD, applied together with 200 μM H2O2. […] Staining was conducted as follows. TUNEL staining was performed according to the manufacturer's protocol (Roche Molecular Biochemicals). Fluorescein labels incorporated in nucleotide polymers were detected by laser scanning confocal microscopy at excitation wavelength of 488 rim (argon laser). […] Necrotic cells had been excluded from these specimens since they became non-adherent and were removed when the medium was decanted and the cell layers were washed in PBS.

caspase-7 = assay: Activated caspase-7 immunofluorescent staining; type: cell-based, rat
Experimental: as §2

[4] = tested on: poly(ADP-ribose) polymerase (PARP); assay: Cleaved PARP immunofluorescent staining; type: cell-based, rat
Experimental: as §2

cytochrome c = assay: Cytochrome c immunofluorescence (translocation to cytosol); type: cell-based, rat
Experimental: as §2

PARP holoenzyme = assay: Immunoblot of PARP holoenzyme; type: cell-based, rat
Experimental: (U) Immunoblot of PARP in neonatal rat cardiac myocytes. Cell lysates from each experimental group were subjected to immunoblot analysis (30 μg protein/lane) with monoclonal antibody against 117-kDa PARP holoenzyme. Cells were treated for either 8 h or 16 hours. To confirm these findings using complementary methods, we examined PARP protein levels as a biochemical indicator of the activation of downstream caspases in each group.

[5] = tested on: rat cerebellar granule neurons; assay: Mitochondrial membrane potential, JC-1 staining, cerebellar granule neurons; type: cell-based
Experimental: as §1, with “The red emission of the dye is due to a potential-dependent aggregation in the mitochondria, reflecting ΨΔ.” left out, “The flow cytometry data are analyzed using Cell Quest (Becton Dickinson, Immunocytometry Systems).” left out

[6] = 100 μM diazoxide with 200 μM H2O2
[7] = 500 μM 5-HD + 100 μM diazoxide + 200 μM H2O2

CC1=NS(=O)(=O)c2cc(Cl)ccc2N1 [diazoxide]
H2O2-induced dissipation of ΨΔ, red fluorescence distribution ([1]; diazoxide 20, 50, 100 μM, 200 μM H2O2 for 2 h): prevented the H2O2-induced dissipation of ΨΔ in a dose-dependent manner | H2O2-induced activation of caspase-3 (caspase-3; [6]): inhibited the H2O2-induced activation of caspase-3 | EC50 (mitoKATP channel): 27 µM | H2O2-induced loss of mitochondrial membrane potential (ΨΔ), JC-1 red staining ([2]; 100 μM diazoxide, 200 μM H2O2 for 2 h, confocal images): protects against H2O2-induced loss of mitochondrial integrity | EC50 ([2]; Rattus norvegicus, 200 μM H2O2 for 2 h, red fluorescence, automated image analysis, read-out: EC50 for prevention of loss of ΨΔ): 40 µM | loss of ΨΔ, red fluorescence by automated image analysis ([2]; diazoxide 20-200 μM, 200 μM H2O2 for 2 h): prevented loss of ΨΔ in a dose-dependent manner | H2O2-induced TUNEL positive nuclei ([3]; 100 μM diazoxide with 200 μM H2O2, 16 h): decreased the frequency of H2O2-induced TUNEL positive nuclei | H2O2-induced activation of caspase-7 (caspase-7; [6]): inhibited H2O2-induced activation of caspase-7 | H2O2-induced PARP cleavage [4, 6]: inhibited the H2O2-induced PARP cleavage | H2O2-induced cytochrome c translocation to the cytoplasm (cytochrome c; 100 μM diazoxide with 200 μM H2O2, 16 hours): inhibited the translocation of cytochrome c | loss of 117-kDa PARP holoenzyme band (PARP holoenzyme; diazoxide with H2O2, 8 h or 16 hours): attenuates the loss of PARP holoenzyme | H2O2-induced loss of ΨΔ in neurons, JC-1 red staining ([5]; 100 μM diazoxide, 100 μM H2O2 for 1 h): protects against H2O2-induced loss of mitochondrial integrity

CC(N/C(=N\C#N)Nc1ccncc1)C(C)(C)C (stereo not shown) [pinacidil]
restoring the loss of ΨΔ induced by H2O2 ([1]; 100 μM pinacidil, 200 μM H2O2): equi-effective to diazoxide

COc1ccc(Cl)cc1C(=O)NCCc1ccc(S(=O)(=O)NC(=O)NC2CCCCC2)cc1 [glibenclamide]
effect of KATP blocker on diazoxide protection of ΨΔ ([1]; glibenclamide 10 μM with diazoxide and H2O2): reversed the salutary effect of diazoxide

CCCCCC(O)CCCC(=O)O (stereo not shown) [5-HD, 5-hydroxydecanoate]
effect of 5-HD alone on ΨΔ ([1]; 5-HD 500 μM + H2O2, absence of diazoxide): no effect on ΨΔ | effect on diazoxide protection of ΨΔ, flow cytometry ([1]; 5-HD 500 μM + diazoxide 100 μM + 200 μM H2O2): abolished the effect of diazoxide | effect on diazoxide inhibition of caspase-3 activation (caspase-3; [7]): negated the effect of diazoxide | effect on diazoxide prevention of loss of ΨΔ, automated image analysis ([2]; 500 μM 5-HD + 100 μM diazoxide + 200 μM H2O2 for 2 h): antagonized the salutary effect of diazoxide | effect on diazoxide protection of ΨΔ ([2]; 500 μM 5-HD + 100 μM diazoxide + 200 μM H2O2 for 2 h, confocal images): blocked | effect on diazoxide protection against TUNEL positivity ([3]; 500 μM 5-HD + 100 μM diazoxide + 200 μM H2O2, 16 h): blocked | effect on diazoxide inhibition of caspase-7 activation (caspase-7; [7]): abolished the anti-apoptosic effect of diazoxide | effect on diazoxide inhibition of PARP cleavage [4, 7]: prevented the diazoxide effect | effect on diazoxide inhibition of cytochrome c translocation (cytochrome c; [7]): abrogated the effect of diazoxide | effect on diazoxide protection of PARP holoenzyme (PARP holoenzyme; 5-HD + diazoxide + H2O2, 8 h or 16 hours): abolished the protective effect of diazoxide | effect on diazoxide protection of ΨΔ in neurons ([5]; 500 μM 5-HD + 100 μM diazoxide + 100 μM H2O2 for 1 h): blocked
